Experimental data: patent US6054441A, “Oxypurine nucleosides and their congeners, and acyl derivatives thereof, for improvement of hematopoiesis” (priority 1995, dated 2000)

Columns and labels:
[1] = system: hematopoietic recovery after cyclophosphamide; experiment: Hematopoietic recovery after cyclophosphamide (Example 50); assay type: in vivo, Balb/C mice; conditions: 2 μmoles/mouse
Experimental: Cyclophosphamide (CP) (275 mg/kg, i.p.) was administered to 96 Balb/C female mice weighing approximately 20 grams each. Twenty-four hours later and each day thereafter mice were given a 0.4 ml i.p. injection of either Tween-80 (0.2%) (controls), palmitoyldeoxyguanosine (2 μmoles/mouse), palmitoyldeoxyinosine (2 μmoles/mouse), palmitoylacyclovir (2 μmoles/mouse), palmitoylarabinosylguanine (2 μmoles/mouse), palmitoylarabinosylhypoxanthine (2 μmoles/mouse), monopalmitoylguanosine 2',3'-acyclic dialcohol (2 μmoles/mouse), and palmitoyl-8-thioguanosine (2 μmoles/mouse). On days 5 and 7 following CP administration 6 animals in each of the 8 groups were bled and then sacrificed by cervical dislocation. Spleens were removed and weighed, and complete blood cell counts performed.

[2] = system: hematopoiesis in normal mice; experiment: Hematopoiesis in normal mice (Example 44); assay type: in vivo, Balb/C mice
Experimental: Normal, otherwise untreated, female Balb/C mice weighing approximately 20 grams each received a total of 4 or 9 0.4 ml intraperitoneal injections (one per day) of either Tween-80 (0.2%) (controls), palmitoylguanosine (2.5 μmoles/mouse/day), or palmitoyldeoxyinosine (2.5 μmoles/mouse/day). Twenty-four hours after the 4th or 9th treatment, groups of 5 or 6 animals from each of the 3 groups were bled and then sacrificed by cervical dislocation. Spleens were removed and weighed, and complete blood cell counts performed.

[3] = system: hematopoietic recovery after cyclophosphamide; experiment: Hematopoietic recovery after cyclophosphamide (Example 48); assay type: in vivo, Balb/C mice
Experimental: Cyclophosphamide (CP) (275 mg/kg, i.p.) was administered to 36 Balb/C female mice weighing approximately 20 grams each. Twenty four hours later and each day thereafter for a total of 4 or 6 days, mice were given a 0.4 ml i.p. injection of either physiological saline (controls), palmitoyldeoxyinosine (2.5 μmoles/mouse), or palmitoylxanthosine (2.5 μmoles/mouse). On days 5 and 7 following CP administration 6 of the 12 animals in each of the 3 groups were bled and then sacrificed by cervical dislocation. Spleens were removed and weighed, and complete blood cell counts performed.

bone marrow cells = experiment: Proliferation of bone marrow cells in long-term culture (Example 68); assay type: cell-based, B6D2F1 mice; conditions: 10 micrograms per ml
Experimental: Bone marrow cells from the femurs of B6D2F1 mice were used to establish long-term marrow cultures. After four weeks, when the stromal layer was confluent, the culture was treated with microphenolic acid in order to remove all cells from the stroma. New normal bone marrow cells (1×10^5 /ml) from the same source were then used to "recharge" the stromal layer. Palmitoyldeoxyguanosine was added to half of the cultures at a concentration of 10 micrograms per ml. Cells were counted on days 1, 3, 5, and 7 following addition of palmitoyldeoxyguanosine. On days 4 and 7 cells from the culture were removed, washed, and replated in methylcellulose. The number of granulo-monocytic colonies was counted one week later.

[4] = system: blood cell counts after 5-fluorouracil; experiment: Pretreatment dose response, recovery after 5-fluorouracil (Example 65); assay type: in vivo, Balb/C mice
Experimental: Sixty female Balb/C mice weighing approximately 20 grams each were distributed into one of five treatment groups and treated once daily for three days by i.p. injection with 3',5'-O-N^2 -tripalmitoyl-2'-deoxyguanosine at a dose of either 1, 5, 10, 25, or 50 mg/kg/treatment in a Tween-DMSO vehicle (0.2% Tween-80 and 7.5% DMSO in physiological saline). Injection volume was 0.4 ml. An additional twelve animals (controls) received vehicle alone on those three days. On the fourth day all seventy-two animals received a single i.p. injection of 5-fluorouracil (5-FU) at a dose of 150 mg/kg. On days 7 and 10 following 5-FU administration six mice from each group were bled and then sacrificed by cervical dislocation. Six untreated mice were also bled and sacrificed to provide data on normal (basal) values. Spleens were removed and weighed, and complete blood cell counts performed.

[5] = system: blood cell counts after cyclophosphamide; experiment: Hematopoietic recovery after cyclophosphamide (Example 62); assay type: in vivo, Balb/C mice; conditions: for Spleen: 25 mg/kg TriPdG or molar equivalent
Experimental: Thirty-six female Balb/C mice weighing approximately 20 grams each received a 0.4 ml i.p. injection of either 3',5'-O-N^2 -tripalmitoyl-2'-deoxyguanosine (triPdG) at a dose of 25 mg/kg/treatment or 3',5'-O-dipalmitoyl-2'-deoxyguanosine (diPdG) at a dose that was the molar equivalent of 25 mg/kg tripalmitoylgdeoxyguanosine, in a Tween-DMSO vehicle (0.2% Tween-80 and 7.5% DMSO in saline) or vehicle alone one time daily for five days following a single injection of cyclophosphamide (CP) (250 mg/kg, i.p.). On days 5 and 7 following CP administration six animals from each of these three groups were bled and then sacrificed by cervical dislocation. Six untreated mice were also bled and sacrificed to provide data on normal. (basal) values. Spleens were removed and weighed, and complete blood cell counts performed.

FDCPmix cells = experiment: Proliferation of FDCPmix cells, MTT assay (Example 69); assay type: cell-based
Experimental: The FDCPmix cell line was used as a suitable in vitro model for predicting the effects of hematopoietic factors on pluripotential stem cells. These cells can be maintained in an-undifferentiated state in the presence of IL-3 or undergo multi-lineage development in the presence of specific hematopoietic growth factors.
This level of proliferation (100%) served as the control value. Inhibition of proliferation by test compounds was represented as a percent of control.
FDCPmix cells were plated at a density of 5×10^4 cells per well in 96-well plates (5×10^5 /ml) using IMDM medium plus 10% fetal bovine serum. […] Test compounds were added at a decreasing concentrations ranging from 10 micrograms/ml down to 1 nanogram/ml. The test compounds included: 3',5'-O-N^2 -tripalmitoyl-2'-deoxyguanosine, 3',5'-di-O-palmitoyl-2'-deoxyguanosine, 3',5'-O-N^2 -trioctanoyl-2'-deoxyguanosine, 3',5'-di-O-octanoyl-2'-deoxyguanosine, and 3',5'-O-N^2 -trioleyl-2'-deoxyguanosine.

[6] = system: blood cell counts after cyclophosphamide; experiment: Hematopoietic recovery after cyclophosphamide (Example 63); assay type: in vivo, Balb-C mice; conditions: for Spleen: 25 mg/kg TriPdG or molar equivalent
Experimental: Fifty-eight female Balb-C mice weighing approximately 20 grams each received a single injection of cyclophosphamide (250 mg/kg, i.p.), and were then distributed into a vehicle control group (0.2% Tween-80+7.5% DMSO in saline; n=12) or one of five treatment groups:
Vehicle or treatment agents were administered to mice once daily for five days at a volume of 0.4 ml by i.p. injection. TriPdG was given at a dose of 25 mg/kg/treatment. The other four agents were given in doses that are the molar equivalent of 25 mg/kg/treatment of TriPdG. On days 5 and 7 following CP administration half of the animals from each of the six groups were bled and then sacrificed by cervical dislocation. Five untreated mice were also bled and sacrificed to provide data on normal (basal) values. Spleens were removed and weighed, and complete blood cell counts performed.

[7] = system: human myeloid leukemia cell line (HL-60); conditions: cited from earlier work; for conversion of immature blast cells into mature granulocytes: HL-60 in vitro
[8] = system: hematopoiesis in normal mice; experiment: Hematopoiesis in normal mice (Example 56); assay type: in vivo, Balb/C mice; conditions: day 5, 2.6 μmoles/mouse, 4 days
Experimental: Normal Balb/C female mice weighing approximately 20 grams each were given a daily 0.4 ml i.p. injection of either physiological saline (controls), palmitoylguanosine (2.6 μmoles/mouse), palmitoyldeoxyguanosine (2.6 μmoles/mouse), monopalmitoylguanosine 2',3'-acyclic dialcohol (2.6 μmoles/mouse), and palmitoyl-8-bromoguanosine (2.6 μmoles/mouse) for 4 days. On the fifth day all 3 animals in each of the 5 groups were bled and then sacrificed by cervical dislocation. Spleens were removed and weighed, and complete blood cell counts performed. Femoral bone marrow from each mouse was collected and a differential cell count performed on marrow smears.

[9] = 48 h, read-out: Cell proliferation

CCCCCCCCCCCCCCCC(=O)OC[C@H]1O[C@@H](n2cnc3c(=O)[nH]cnc32)C[C@@H]1O
spleen weight ([1]; day 5): significantly elevated
spleen weight ([2]; day 5, 2.5 μmoles/mouse/day i.p.): significantly greater
neutrophil counts ([2]; day 10, vs Tween 80): significantly greater
spleen weight ([2]; day 10, vs Tween 80): significantly greater
total leukocyte counts ([2]; day 10, vs Tween 80): significantly greater
spleen weight ([3]; day 5, 2.5 μmoles/mouse, vs controls): significantly elevated
neutrophil counts ([3]; day 5, vs controls): significantly elevated
total leukocyte counts ([3]; day 5, vs controls): significantly elevated
neutrophil counts ([3]; day 5, vs palmitoylxanthosine): significantly elevated
total leukocyte counts ([3]; day 5, vs palmitoylxanthosine): significantly elevated
Neutrophils ([3]; day 7, vs controls): significantly increased
spleen weight ([3]; day 7, vs controls): significantly increased
total leukocytes ([3]; day 7, vs controls): significantly increased

CCCCCCCCCCCCCCCC(=O)OCCOCn1cnc2c(=O)[nH]c(N)nc21 [1-O-palmitoylacyclovir, palmitoylacyclovir]
white blood cell count ([1]; day 5): significantly elevated compared to controls in all but one treatment group (1-O-palmitoylacyclovir)

CCCCCCCCCCCCCCCC(=O)Nc1nc2c(ncn2[C@H]2C[C@H](OC(=O)CCCCCCCCCCCCCCC)[C@@H](COC(=O)CCCCCCCCCCCCCCC)O2)c(=O)[nH]1 [TriPdG, 3',5'-O-N^2-tripalmitoyl-2'-deoxyguanosine]
Cells (bone marrow cells; day 1): 1.9 ± .13 10^6 /flask
Cells (bone marrow cells; day 3): 2.9 ± .10 10^6 /flask
granulocyte/macrophage colony-forming units (bone marrow cells; day 4): 5123 ± 561 CFU-GM/flask
Cells (bone marrow cells; day 5): 7.7 ± .2 10^6 /flask
Cells (bone marrow cells; day 7): 4.3 ± .15 10^6 /flask
granulocyte/macrophage colony-forming units (bone marrow cells; day 7): 33903 ± 9457 CFU-GM/flask
Platelets ([4]; 7 days after 5-FU, 1 mg/kg): 457 ± 36 K/μl
Spleen ([4]; 7 days after 5-FU, 1 mg/kg): 74 ± 3 mg
Platelets ([4]; 7 days after 5-FU, 5 mg/kg): 682 ± 66 K/μl
Spleen ([4]; 7 days after 5-FU, 5 mg/kg): 78 ± 4 mg
Platelets ([4]; 7 days after 5-FU, 10 mg/kg): 571 ± 41 K/μl
Spleen ([4]; 7 days after 5-FU, 10 mg/kg): 83 ± 6 mg
Platelets ([4]; 7 days after 5-FU, 25 mg/kg): 587 ± 19 K/μl
Spleen ([4]; 7 days after 5-FU, 25 mg/kg): 93 ± 5 mg
Platelets ([4]; 7 days after 5-FU, 50 mg/kg): 596 ± 43 K/μl
Spleen ([4]; 7 days after 5-FU, 50 mg/kg): 102 ± 4 mg
Lymphocytes ([4]; 10 days after 5-FU, 1 mg/kg): 5.7 ± .2 K/μl
Neutrophils ([4]; 10 days after 5-FU, 1 mg/kg): 0.4 ± .2 K/μl
Spleen ([4]; 10 days after 5-FU, 1 mg/kg): 96 ± 13 mg
WBC ([4]; 10 days after 5-FU, 1 mg/kg): 6.2 ± .4 K/μl
Lymphocytes ([4]; 10 days after 5-FU, 5 mg/kg): 6.3 ± .7 K/μl
Neutrophils ([4]; 10 days after 5-FU, 5 mg/kg): 1.6 ± .4 K/μl
Spleen ([4]; 10 days after 5-FU, 5 mg/kg): 157 ± 13 mg
WBC ([4]; 10 days after 5-FU, 5 mg/kg): 8.2 ± .9 K/μl
Lymphocytes ([4]; 10 days after 5-FU, 10 mg/kg): 5.7 ± .4 K/μl
Neutrophils ([4]; 10 days after 5-FU, 10 mg/kg): 1.8 ± .4 K/μl
Spleen ([4]; 10 days after 5-FU, 10 mg/kg): 169 ± 24 mg
WBC ([4]; 10 days after 5-FU, 10 mg/kg): 7.7 ± .6 K/μl
Lymphocytes ([4]; 10 days after 5-FU, 25 mg/kg): 8.3 ± .4 K/μl
Neutrophils ([4]; 10 days after 5-FU, 25 mg/kg): 2.9 ± .4 K/μl
Spleen ([4]; 10 days after 5-FU, 25 mg/kg): 293 ± 17 mg
WBC ([4]; 10 days after 5-FU, 25 mg/kg): 11.4 ± .6 K/μl
Lymphocytes ([4]; 10 days after 5-FU, 50 mg/kg): 8.3 ± 1.0 K/μl
Neutrophils ([4]; 10 days after 5-FU, 50 mg/kg): 2.2 ± .5 K/μl
Spleen ([4]; 10 days after 5-FU, 50 mg/kg): 320 ± 39 mg
WBC ([4]; 10 days after 5-FU, 50 mg/kg): 10.8 ± 1.6 K/μl
Neutrophils ([5]; 5 days after CP): 2.5 ± .3 K/μl
WBC ([5]; 5 days after CP): 4.1 ± .4 K/μl
Spleen ([5]; 5 days after CP): 77 ± 7 mg
Neutrophils ([5]; 7 days after CP): 9.9 ± .9 K/μl
Platelets ([5]; 7 days after CP): 549 ± 25 K/μl
WBC ([5]; 7 days after CP): 13.4 ± .4 K/μl
Spleen ([5]; 7 days after CP): 156 ± 12 mg
inhibition of proliferation (FDCPmix cells; 10 micrograms/ml down): significant dose-dependent inhibitory effects at doses from 10 micrograms per ml down to 100 nanograms per ml
activity at 0.01 µg/mL (FDCPmix cells; [9]): 78 ± 1%
activity at 0.039 µg/mL (FDCPmix cells; [9]): 76 ± 2%
activity at 0.156 µg/mL (FDCPmix cells; [9]): 72 ± 3%
activity at 0.625 µg/mL (FDCPmix cells; [9]): 60 ± 2%
activity at 2.5 µg/mL (FDCPmix cells; [9]): 51 ± 0.7%
activity at 10 µg/mL (FDCPmix cells; [9]): 51 ± 0.6%
Neutrophils ([6]; 5 days after CP): 0.6 ± .1 K/μl
Platelets ([6]; 5 days after CP): 330 ± 19 K/μl
WBC ([6]; 5 days after CP): 3.6 ± .4 K/μl
Spleen ([6]; 5 days after CP): 73 ± 3 mg
Neutrophils ([6]; 7 days after CP): 7.3 ± .3 K/μl
Platelets ([6]; 7 days after CP): 674 ± 37 K/μl
WBC ([6]; 7 days after CP): 3.6 ± .4 K/μl
Spleen ([6]; 7 days after CP): 198 ± 23 mg

CN(C)C=O [dimethylformamide, reference compound]
conversion of immature blast cells into mature granulocytes [7]: induced

OC[C@H]1O[C@@H](n2cnc3c(O)ncnc32)[C@H](O)[C@@H]1O [inosine]
effect on induced maturation of HL-60 cells ([7]; HL-60 with inducing agents): no effect on induced maturation

CC1=C(/C=C/C(C)=C/C=C/C(C)=C/C(=O)O)C(C)(C)CCC1 [retinoic acid, reference compound]
conversion of immature blast cells into mature granulocytes [7]: induced

Palmitoylguanosine 2,3'-acyclic dialcohol
spleen weight ([1]; day 5): significantly elevated
platelet counts [8]: significantly elevated in the all of the treatment groups except palmitoylguanosine 2',3'-acyclic dialcohol
spleen weight [8]: significantly elevated
number of myelocytes ([8]; femoral bone marrow): significantly greater

palmitoylarabinosylguanine
spleen weight ([1]; day 7): significantly elevated on day 7 in all treatment groups except palmitoylarabinosylguanine

palmitoylarabinosylhypoxanthine
spleen weight ([1]; day 7): significantly elevated on day 7 in all treatment groups except palmitoylarabinosylguanine and palmitoylarabinosylhypoxanthine
